Where two headings read alike, the source gives them in different places.
Key:
[1] = tested on: T. cruzi epimastigotes; assay: Trypanocidal activity against T. cruzi epimastigotes (XTT); type: cell-based, Trypanosoma cruzi; settings: for IC50: Trypanosoma cruzi, read-out: T. cruzi IC50; for selectivity ratio at 72 h: mouse (RAW 264.7 cells) / Trypanosoma cruzi (epimastigotes), RAW cell IC50 / T. cruzi IC50, read-out: T. cruzi SI (selectivity index, cytotoxicity/anti-protozoal activity)
Procedure: Trypanocidal activity was determined according to Muelas-Serrano with some modifications. […] Benznidazol (3.1–100 μg/mL) was used as the control drug. Assays were performed in triplicates.

[2] = tested on: L. brasiliensis promastigotes; assay: Leishmanicidal activity against L. brasiliensis promastigotes (XTT); settings: for IC50: 72 h, read-out: L. brasiliensis IC50
Procedure: (§1) Evaluations against Leishmania parasites: Promastigotes of Leishmania-Leishmania: L. amazonensis, Clone 1, NHOM-BR-76-LTB-012 (Lma, donated by the Paul Sabatier Université, France) and Leishmania-Viannia: L. braziliensis M2904 C192 RJA (M2904, donated by Dr. Jorge Arévalo from Universidad Peruana Cayetano Heredia, Peru). All strains were cultured in Schneider’s insect medium, (pH 6.2) supplemented with 10% FBS and incubated at 26 °C. Medium changes were made every 72 h to maintain a viable parasitic population. Leishmanicidal activity was determined according to Williams with some modifications. Samples were dissolved in DMSO (maximum final concentration 1%) at 10 mg/mL. Promastigotes in logarithmic phase of growth, at the concentration 3 × 10^6 parasites/mL, were distributed (100 μL/well) in 96-well flat bottom microtiter plates. Samples with different concentrations (3.1–100 μg/mL) were added (100 μL). […] Assays were performed in triplicates. The microwell plates were incubated for 72 h at 26 °C. After incubation, a solution of XTT (1 mg/mL) in PBS (pH 7.0 at 37 °C) with PMS (0.06 mg/mL) was added (50 μL/well), and incubated for 3 h at 26 °C. The optical density of each well was measured and the IC50 values calculated.

[3] = tested on: L. amazoniensis promastigotes; assay: Leishmanicidal activity against L. amazoniensis promastigotes (XTT); settings: for IC50: Leishmania amazonensis, 72 h, read-out: L. amazoniensis IC50
Procedure: as §1, with “All” for “Evaluations against Leishmania parasites: Promastigotes of Leishmania-Leishmania: L. amazonensis, Clone 1, NHOM-BR-76-LTB-012 (Lma, donated by the Paul Sabatier Université, France) and Leishmania-Viannia: L. braziliensis M2904 C192 RJA (M2904, donated by Dr. Jorge Arévalo from Universidad Peruana Cayetano Heredia, Peru). All”

[4] = Cytotoxicity in RAW cells (Resazurin); type: cell-based, murine; settings: mouse
Procedure: Evaluations against RAW cells: The Raw 264.7 murine macrophage cell line was purchased from the American Type Culture Collection (ATCC-TIB71). The cells were maintained in DMEM-HG medium supplemented with 10% fetal bovine serum, 100 U/mL of penicillin and 100 μg/mL of streptomycin, and sodium bicarbonate (2.2 g/L) in humidified atmosphere at 37 °C with 5% CO2. Samples were prepared as described above and added (in 100 μL DMSO) at different concentrations (6.2–200 μg/mL). Medium blank, control drugs and cell growth controls were included to evaluate cell viability. The plates were incubated for 72 h at 37 °C with 5% CO2. After incubation for the indicated time, the cells were washed, after which 10 μL of Resazurin reagent (2.0 mM) was added. They were further incubated at 37 °C for 3 h in a humidified incubator. The IC50 values were assessed using a fluorometric reader (540 nm excitation, 590 nm emission) and the Gen5 software. All assays were performed in triplicate.

[5] = epimastigotes, 72 h at 26 °C, XTT, triplicates
[6] = RAW cells, 72 h at 37 °C, Resazurin, triplicate, read-out: Cytotoxicity IC50
[7] = L. brasiliensis SI (selectivity index, cytotoxicity/anti-protozoal activity), RAW cell IC50 / L. brasiliensis IC50
[8] = L. amazoniensis SI (selectivity index, cytotoxicity/anti-protozoal activity), RAW cell IC50 / L. amazoniensis IC50

Q: Which IC50 [1, 5] does the source give for COc1ccc2c(c1)-c1cc(COC(=O)C(C)(C)C)ccc1C(C)(C)O2 [4c, (2-Methoxy-6,6-dimethyl-6H-benzo[c]chromen-9-yl)methyl pivalate] here?
A: 6.4 ± 0.1 µM

Q: And the selectivity ratio at 72 h [1]?
A: 3

Q: And the selectivity ratio at 72 h [2]?
A: 1.1

Q: What about the IC50 [2] of the same compound?
A: 17.4 ± 1.7 µM

Q: And the selectivity ratio at 72 h [3]?
A: 1

Q: What about the IC50 [3] of the same compound?
A: 20.5 ± 0.6 µM

Q: What about the IC50 at 72 h [4, 6] of the same compound?
A: 19.8 ± 0.9 µM

Q: With COC(=O)c1ccc2c(c1)-c1cc(OC)ccc1OC2(C)C [5d, Methyl 2-Methoxy-6,6-dimethyl-6H-benzo[c]chromene-9-carboxylate] as the compound, how does the IC50 [1, 5] read?
A: 31.8 ± 2.4 µM

Q: And the selectivity ratio at 72 h [1]?
A: 1.2

Q: And the IC50 [2]?
A: 18.4 ± 5.7 µM

Q: And the selectivity ratio at 72 h [2, 7]?
A: 2.1

Q: What about the selectivity ratio at 72 h [3, 8] of the same compound?
A: 0.7

Q: What about the IC50 [3] of the same compound?
A: 59 ± 1.3 µM

Q: And the IC50 at 72 h [4]?
A: 38.2 ± 2.7 µM

Q: For COc1ccc2c(c1)-c1cc(CNCCC(C)C)ccc1C(C)(C)O2 [3h, N-((2-Methoxy-6,6-dimethyl-6H-benzo[c]chromen-9-yl)methyl)-3-methylbutan-1-amine], which IC50 [1, 5] is on record?
A: 5.9 ± 1.2 µM

Q: What about the selectivity ratio at 72 h [1] of the same compound?
A: 1.3

Q: And the IC50 [2]?
A: 15.9 ± 0.9 µM

Q: And the selectivity ratio at 72 h [2, 7]?
A: 0.5

Q: And the selectivity ratio at 72 h [3, 8]?
A: 0.4

Q: What about the IC50 [3] of the same compound?
A: 17.7 ± 7.4 µM

Q: And the IC50 at 72 h [4]?
A: 7.4 ± 2.4 µM

Q: For COc1ccc2c(c1)-c1cc(COC(=O)c3ccco3)ccc1C(C)(C)O2 [4k, (2-Methoxy-6,6-dimethyl-6H-benzo[c]chromen-9-yl)methyl furan-2-carboxylate], which IC50 [1, 5] is on record?
A: 3.8 ± 0.3 µM

Q: What about the selectivity ratio at 72 h [1] of the same compound?
A: 7.9

Q: And the IC50 [2]?
A: 12.8 ± 0.1 µM

Q: And the selectivity ratio at 72 h [2, 7]?
A: 2.4

Q: And the selectivity ratio at 72 h [3, 8]?
A: 2.4

Q: What about the IC50 [3] of the same compound?
A: 12.8 ± 1.8 µM

Q: And the IC50 at 72 h [4]?
A: 30.5 ± 3.6 µM

Q: For COc1ccc2c(c1)-c1cc(CNC(C)C)ccc1C(C)(C)O2 [3f, N-((2-Methoxy-6,6-dimethyl-6H-benzo[c]chromen-9-yl)methyl)propan-2-amine], which IC50 [1, 5] is on record?
A: 70.6 ± 9.6 µM

Q: And the selectivity ratio at 72 h [1]?
A: 0.4

Q: And the IC50 [2]?
A: 83.5 ± 32.1 µM

Q: What about the selectivity ratio at 72 h [2, 7] of the same compound?
A: 0.4

Q: What about the selectivity ratio at 72 h [3, 8] of the same compound?
A: 0.4

Q: And the IC50 [3]?
A: 67.8 ± 13.8 µM

Q: And the IC50 at 72 h [4]?
A: 29.5 ± 9.6 µM

Q: Which IC50 [1, 5] does the source give for COc1ccc2c(c1)-c1cc(CCl)ccc1C(C)(C)O2 [3b, 9-(chloromethyl)-2-methoxy-6,6-dimethyl-6H-benzo[c]chromene] here?
A: 38.1 ± 0.4 µM

Q: And the selectivity ratio at 72 h [1]?
A: 1.6

Q: What about the IC50 [2] of the same compound?
A: 17.1 ± 0.1 µM

Q: What about the selectivity ratio at 72 h [2, 7] of the same compound?
A: 3.5

Q: What about the selectivity ratio at 72 h [3, 8] of the same compound?
A: 1.7

Q: And the IC50 [3]?
A: 35 ± 2.8 µM

Q: And the IC50 at 72 h [4]?
A: 59.2 ± 14.5 µM

Q: What does the source list for COc1ccc2c(c1)-c1cc(COC(C)=O)ccc1C(C)(C)O2 [4a, (2-Methoxy-6,6-dimethyl-6H-benzo[c]chromen-9-yl)methyl acetate]?
A: IC50 [1, 5]: 14.4 ± 1.6 µM; selectivity ratio at 72 h [1]: 2.3; IC50 [2]: 28.8 ± 0.3 µM; selectivity ratio at 72 h [2, 7]: 1.1; selectivity ratio at 72 h [3, 8]: 1.2; IC50 [3]: 26.9 ± 0.6 µM; IC50 at 72 h [4]: 32.7 ± 22.4 µM

Q: With COc1ccc2c(c1)-c1cc(C(=O)O)ccc1C(C)(C)O2 [5c, 2-Methoxy-6,6-dimethyl-6H-benzo[c]chromene-9-carboxylic acid] as the compound, how does the IC50 [1, 5] read?
A: 56.3 µM

Q: And the selectivity ratio at 72 h [1]?
A: 4.4

Q: And the IC50 [2]?
A: 65.1 ± 16.5 µM

Q: And the selectivity ratio at 72 h [2, 7]?
A: 3.8

Q: And the selectivity ratio at 72 h [3, 8]?
A: 1.2

Q: What about the IC50 [3] of the same compound?
A: 199 µM

Q: And the IC50 at 72 h [4]?
A: 246 ± 24.6 µM

Q: For COc1ccc2c(c1)-c1cc(COC(=O)C3CCCCC3)ccc1C(C)(C)O2 [4i, (2-Methoxy-6,6-dimethyl-6H-benzo[c]chromen-9-yl)methyl cyclohexanecarboxylate], which IC50 [1, 5] is on record?
A: 13.1 ± 0.5 µM

Q: And the selectivity ratio at 72 h [1]?
A: 3.9

Q: What about the selectivity ratio at 72 h [2] of the same compound?
A: 2.1

Q: What about the IC50 [2] of the same compound?
A: 24.3 ± 0.8 µM

Q: What about the selectivity ratio at 72 h [3] of the same compound?
A: 1.3

Q: What about the IC50 [3] of the same compound?
A: 40.5 ± 8.7 µM

Q: And the IC50 at 72 h [4]?
A: 51.3 ± 8.2 µM

Q: What does the source list for CCCCCCCCCCCCCCCCOP(=O)([O-])OCC[N+](C)(C)C [Miltefosine, reference compound]?
A: IC50 [2]: 13 ± 1.2 µM; IC50 at 72 h ([4]; RAW 264.7 macrophage cells (ATCC-TIB71), RAW cells, 72 h at 37 °C, Resazurin, triplicate, read-out: Cytotoxicity IC50): 76.6 ± 3.2 µM

Q: With O=C(Cn1ccnc1[N+](=O)[O-])NCc1ccccc1 [Benznidazole, reference compound] as the compound, how does the IC50 ([1]; 72 h) read?
A: 19.2 ± 7.7 µM

Q: And the selectivity ratio at 72 h [1]?
A: 3.9

Q: What about the IC50 at 72 h [4, 6] of the same compound?
A: 74.7 ± 9.1 µM

Source: PMC7412453, “SAR:s for the Antiparasitic Plant Metabolite Pulchrol. 1. The Benzyl Alcohol Functionality” (Molecules, 2020)
